In PMC7588914, “Luminescence of Cypridina Luciferin in the Presence of Human Plasma Alpha 1-Acid Glycoprotein” (International Journal of Molecular Sciences, 2020):

Tested on: T1, human plasma alpha 1-acid glycoprotein (hAGP)
T1 construct: gene ORM1; native, purified from human plasma (commercial, Sigma-Aldrich); secreted glycoprotein, signal peptide removed; plasma preparation is normally a mix of ORM1 and ORM2 products
Assay: luminescence intensity, Michaelis-Menten fit
Format: biochemical
Conditions: 50 mM Gly-NaOH pH 9.5, room temperature, 25 μg/mL hAGP; hAGP treated as a luciferase

SMILES: CC[C@H](C)c1nc2c(CCCNC(=N)N)[nH]c(-c3c[nH]c4ccccc34)cn-2c1=O [Cypridina luciferin]
- Km: 0.46 µM
